≈ marks a conversion by molar mass, not a printed value. Read-outs that look alike come from different tables or passages of the source.
What was measured:
HCT/VP35 = assay: In vitro cytotoxicity, VP16 resistant HCT/VP35 human colon carcinoma; assay type: cell-based; details: for ratio of IC50 values HCT/VP35 vs HCT116: IC50 divided by IC50 for HCT116
Description: | HCT/VP35 human colon, VP16 resistant

HCT/VM46 = assay: In vitro cytotoxicity, VM26 resistant HCT/VM46 human colon carcinoma; assay type: cell-based; details: for ratio of IC50 values HCT/VM46 vs HCT116: IC50 divided by IC50 for HCT116
Description: | HCT/VM46 human colon, VM26 resistant

L1210/0 [1] = assay: Cytotoxicity, 48-hr exposure of L1210/0 leukemia cells; assay type: cell-based, murine; details: read-out: IC50 L1210/0
Description: (§1) Murine L1210 leukemia cells sensitive (L1210/0) and resistant (L1210/L-PAM)to L-phenylalanine mustard were obtained that are adaptable to either in vitro or in vivo passage.
(§2) Broad resistance of the L1210/L-PAM cell line is shown by the approximately 4-fold and 9-fold increases in IC50, compared to L1210/0, for L-PAM and mechlorethamine, respectively (Comparative Examples 3 and 4). […].

L1210/L-PAM [2] = assay: Cytotoxicity, 48-hr exposure of L-PAM resistant L1210/L-PAM leukemia cells; assay type: cell-based, murine; details: for IC50: read-out: IC50 L1210/L-PAM; for fold increase in IC50, L1210/L-PAM compared to L1210/0: 48-h exposure
Description: as §1, §2

HCT116 = assay: In vitro cytotoxicity, HCT116 human colon carcinoma; assay type: cell-based; details: data provided by Bristol-Myers Laboratories
Description: ^b Cell lines: HCT116 human colon (sensitive to VP16 and VM26)

[3] = Acute intraperitoneal toxicity / maximally tolerated dose in mice; assay type: in vivo; details: 6 mg/kg/day i.p., separate experiment
Procedure: (§3) The maximally tolerated duration of the highest dose shown in FIG. 2 and Table II, 6 mg/kg/day i.p. of 2-chloroethyl phenyl selenone, was 10 days in a separate experiment. In the experiments shown, i.p. drug was administered for 5 consecutive days, Days 1-5, beginning the day after tumor inoculation (on Day 0).

[4] = assay type: physicochemical
[5] = tested on: P388 murine leukemia ascites cells; assay: In vivo growth inhibition of P388 leukemia ascites in mice; design: species or system murine; BDF1 mice
Procedure: In FIG. 2 and Table II are shown the results of in vivo antitumor testing of 2-chloroethyl aryl selenones against murine P388 Leukemia ascites cells.
Examples 5-8 consisted of the use of 2-chloroethyl 4-methoxy-phenyl selenone to treat the mice. Examples 9-12 were the same as example 5 except 2-chloroethyl phenyl selenone was employed.
as §3
Mice were inoculated i.p. with 1×10^6 cells of P388 murine leukemia ascites passaged in BDF1 mice, in a volume of 0.1 ml. The selenones were formulated in normal (0.9%, w/v) NaCl for an injection volume of 0.3 ml. Control mice (12 in each group) received i.p. saline alone comparative examples 1 and 2. For each dose level and drug, 6 mice per group were used.
The plateauing of weight increase, at Days 8-9, is consistent with classical Gompertizian tumor growth kinetics (Laird, A. K. Brit. J. Cancer 18:490-502, 1964). The delays observed in the time period before the onset of the exponential phase of weight increase are given in Table II, defined as the Growth Delay.
^a Calculated from Day at which weight first exceeded baseline (Day 0

[6] = tested on: HT29 human colon carcinoma cells; assay: Growth inhibition cytotoxicity against HT29 human colon carcinoma cells (MER(+)); assay type: cell-based; details: HT-29
Description: (Example 15) These cells are very high in the alkyltransferase enzyme for repair of DNA guanine O6-alkyl products, and therefore are considered strongly MER(+) in phenotype. Levels of this enzyme in HT29 cells have averaged about 0.5 pmol/mg protein in recent studies (K. Chan, et al., unpublished). […] Thus, the lack of cross-resistance to ethyleneimines by the present invention of 2-chloroethyl aryl selenones is not associated with resistence mediated by the alkyltransferase repair enzyme.

[7] = tested on: 7 different human colon carcinoma cell lines; details: read-out: average IC50, NCI in vitro screen; cited from earlier work
[8] = Swain-Scott product competition of sulfur nucleophiles vs NBP (second-order rate constant ratios); assay type: physicochemical; details: S2O3^2- vs NBP, 37° C., 10 h, 52% aqueous acetone, mean ± S.D.
Description: (§4) The properties of nucleophilicity and electivity can be quantitatively expressed as n and s constants in the Swain-Scott linear free energy relationship. It has been shown that s and n constants of biological alkylating agents and nucleophiles, respectively, can be readily determined with high precision, using 4-(4-nitrobenzyl)pyridine (NBP) as a competitive substrate for alkyl product formation (Spears, C. P. Mol. Pharmacl.19:496-504,1981; Barbin,A.,Bereziat, A., O'Neill, I. K., and Bartsch, H. Chem.-Biol. Interact,73:261-277, 1990; Kang, S. I., and Spears,C. P. J. Med. Chem. 33:1544-1547, 1990). Broad-spectrum antitumor alkylating agents show uniformly high s constants Spears, C. P. Mol.Pharmacol. 19:496-504, 1981; in contrast, mutagenically efficient alkylating agents show low values (Peterson,A. R., Landolph, J. R., Peterson, H., Spears, C. P., and Heidelberger, C. Cancer Res. 41:3095-3099, 1981; Barbin, A., and Bartsch, H. Mut. Res.215:95-106, 1989).
(§5) FIG. 1 is a Swain-Scott plot of the ratio of second-order rate constants, log (ky /knbp) for several model sulfur, nitrogen, and oxygen nucleophiles in their reactions with 2-chloroethyl 4-methoxy-phenyl selenone ("CEMOS"), vs. their published nucleophilicity nCH3 Br constants. Values of n were taken to be 2.72 for acetate (AcO--), 3.3 for ascorbate, 3.6 for pyridine, 4.0 for azide (N3), 3.94 for nitrite, 5.1 for thiol (SH), 6.18 for sulfite (SO3^2-), 6.36 for thiosulfate (S2 O3^2-), and 6.6 for thiophosphate (HPSO3^2-) (derived from the Ogston "Competition Factor") (Ogston, A. G., Holiday, E. R., Philpot, J. S. L., and Stocken, L. A. Trans.Faraday Soc. 44:45-52, 1948).
Extrapolation of Eq. A predicts that the log (ky /knbp) values for the thiol nucleophiles should have ranged from 3 to 5. However, the measured ratios of second-order rate constants were approximately 100-fold lower than this expectation. Also, the linear regression relationship, Eq. B (FIG. 1), for correlation of log (ky /knbp) values vs. nCH3 Br constants gave a sulfur nucleophile selectivity constant, s, equal to 0.84, approximately one-half of the value for reaction with nitrogen and oxygen nucleophiles:
(§6) ^a By competition between S2 O3^2- and NBP log(kS
(§7) /knbp) or N3^- and NBP log(kN /knbp ) at
(§8) 37° C. and 10 h, in 52% aqueous acetone, using initial
(§9) concentrations of 0.0435 mM and 0.0217 mM of 2chloroethyl phenyl selenone
(§10) and nornitrogen mustard, respectively, as described. Values, experimental

[9] = Swain-Scott product competition of nitrogen and oxygen nucleophiles vs NBP (second-order rate constant ratios); assay type: physicochemical; details: N3^- vs NBP, 37° C., 10 h, 52% aqueous acetone, mean ± S.D.
Description: as §4, §5
The slope of the linear regression equation through the 5 nitrogen and oxygen nucleophiles gives a Swain-Scott selectivity constant, s, equal to 1.79, by Eq. A, shown in FIG. 1:
as §6, §7, §8, §9, §10

L1210/0 [10] = details: cited from earlier work
[11] = compared with chlorambucil; cited from earlier work
L1210/L-PAM [12] = details: L1210/L-PAM line; cited from earlier work
[13] = VP16 resistant, data provided by Bristol-Myers Laboratories
[14] = VM26 resistant, data provided by Bristol-Myers Laboratories
[15] = Mus musculus, L1210/0, 48-hr exposure
[16] = Mus musculus, L1210/LPAM, 48-hr exposure

2,6Bis(3-methanesulfonylpropylseleno)lutidine [Lutidine Derivative]
IC50 HCT/VP35 (HCT/VP35; [13]): > 15.6 µg/mL | IC50 HCT/VM46 (HCT/VM46; [14]): > 15.6 µg/mL | IC50 (L1210/0 [1]; 48-hr exposure): 12000 nM | Ratio of IC50s (L1210/L-PAM vs L1210/0) (L1210/L-PAM [2]; 48-hr exposure): 2.3 | IC50 (L1210/L-PAM [2]; 48-hr exposure): 28 µM | IC50 HCT116 (HCT116): > 15.6 µg/mL

3-methanesulfonylpropyl phenyl selenone
ratio of IC50 values HCT/VP35 vs HCT116 (HCT/VP35): 0.8 | IC50 HCT/VP35 (HCT/VP35; [13]): 5.15 µg/mL | ratio of IC50 values HCT/VM46 vs HCT116 (HCT/VM46): 0.8 | IC50 HCT/VM46 (HCT/VM46; [14]): 4.93 µg/mL | IC50 HCT116 (HCT116): 6.34 µg/mL

O=[Se](=O)(CCCl)c1ccccc1 [2-chloroethyl phenyl selenone]
maximally tolerated duration [3]: 10 days | AA (alkylating activity, absorption at 560 nm) ([4]; alkalinized alkyl-NBP, mean ± S.D.): 0.75 ± 0.004 | alkylating activity relative to mechlorethamine HCl ([4]; mechlorethamine HCl = 100%): 140% | alkylating activity, percent of nor-nitrogen mustard ([4]; relative to nor-nitrogen mustard): 170% | Growth delay ([5]; 1.0 mg/kg daily i.p., Days 1-5 (total 5 mg/kg), Ex. 6, Ex. 9): 4 days | inhibition of tumor growth by the lowest dose tested ([5]; 1 mg/kg/d i.p.): inhibition of tumor growth | Growth delay ([5]; 2.0 mg/kg daily i.p., Days 1-5 (total 10 mg/kg), Ex. 7, Ex. 10): 7 days | Growth delay ([5]; 4.0 mg/kg daily i.p., Days 1-5 (total 20 mg/kg), Ex. 8, Ex. 11): 8 days | Growth delay ([5]; 6 mg/kg daily i.p., Days 1-5 (total 30 mg/kg), Ex. 12): 11 days | IC50 (HCT/VP35; Homo sapiens, HCT/VP35, VP16 resistant, data provided by Bristol-Myers Laboratories): 0.82 µg/mL (≈ 3.26 µM) | ratio of IC50 values HCT/VP35 vs HCT116 (HCT/VP35): 0.8 | IC50 [6]: 2800 nM | IC50 (HCT/VM46; Homo sapiens, VM26 resistant, data provided by Bristol-Myers Laboratories): 0.44 µg/mL (≈ 1.75 µM) | ratio of IC50 values HCT/VM46 vs HCT116 (HCT/VM46): 0.4 | IC50 (L1210/0 [1]; [15]): 550 nM | Ratio of IC50s (L1210/L-PAM vs L1210/0) (L1210/L-PAM [2]; 48-hr exposure): 0.9 | IC50 (L1210/L-PAM [2]; [16]): 0.51 µM | IC50 [7]: 2300 ± 1600 nM | IC50 (HCT116; Homo sapiens, HCT-116): 1.02 µg/mL (≈ 4.05 µM) | log(kS/knbp) [8]: 1.77 ± 0.05 | log(kS/knbp) ([8]; listed as SKI-273): 1.77±0.05 | log(kN/knbp) [9]: 1.95 ± 0.11 | log(kN/knbp) ([9]; listed as SKI-273): 1.95±0.11

CS(=O)(=O)OCCC[Se]CCCOS(C)(=O)=O [(MsOCH2 CH2 CH2)2 Se]
IC50 (L1210/0 [1]; [15]): 2300 nM | fold increase in IC50, L1210/L-PAM compared to L1210/0 (L1210/L-PAM [2]): 7 fold | Ratio of IC50s (L1210/L-PAM vs L1210/0) (L1210/L-PAM [2]; 48-hr exposure): 7.0 | IC50 (L1210/L-PAM [2]; [16]): 16 µM

O=NN(CCCl)C(=O)NCCCl [BCNU, carmustine]
sensitivity of parent L1210/0 line (L1210/0 [10]): sensitive

CS(=O)(=O)OCCCCOS(C)(=O)=O [Busulfan]
IC50 (L1210/0 [1]; [15]): 55000 nM | Ratio of IC50s (L1210/L-PAM vs L1210/0) (L1210/L-PAM [2]; 48-hr exposure): 1.1 | IC50 (L1210/L-PAM [2]; [16]): 60 µM

CS(=O)(=O)CS(=O)(=O)OCCCl [Clomesone]
nucleophilic selectivity [11]: relatively high nucleophilic selectivity approaching that of chlorambucil

N[C@@H](Cc1ccc(N(CCCl)CCCl)cc1)C(=O)O [L-Phenylalanine Mustard (L-PAM), L-Phenylalanine Mustard]
sensitivity of parent L1210/0 line (L1210/0 [10]): sensitive | in vivo resistance (log cell kill differential) (L1210/L-PAM [12]): 4 log | IC50 (L1210/0 [1]; Mus musculus, L1210/0, 48 h): 1600 nM | fold increase in IC50, L1210/L-PAM compared to L1210/0 (L1210/L-PAM [2]): approximately 4 fold | Ratio of IC50s (L1210/L-PAM vs L1210/0) (L1210/L-PAM [2]; 48-hr exposure): 4.4 | IC50 (L1210/L-PAM [2]; Mus musculus, L1210/LPAM, 48 h): 7 µM

Source: US5614562A, “Method of treating drug resistant tumor cells using organoselenones” (The University of Sourthern California, priority 1992, dated 1997)
